{"source": "patent US20060009430A1", "about": "“Composition for the prevention and treatment of the detrimental effects of dihydrotestosterone” (priority 2004, published 2006)", "origin": "cited, not measured here", "key": {"[1]": {"tested_on": "localized prostate cancer", "conditions": "15 mg twice per day orally, 3 weeks"}, "[2]": {"tested_on": "prostate", "conditions": "rats, in combination with finasteride"}, "[3]": {"tested_on": "advanced prostate cancer", "conditions": "men with most dietary selenium versus lowest intake"}, "[4]": {"tested_on": "cancer", "conditions": "in vivo"}, "[5]": {"tested_on": "prostate cancer", "conditions": "200 μg daily for 4.5 years"}}}
{"compound": "CC(C)=CCC/C(C)=C/C=C/C(C)=C/C=C/C(C)=C/C=C/C=C(C)/C=C/C=C(C)/C=C/C=C(\\C)CCC=C(C)C", "note": "[lycopene]", "values": [{"measurement": "metastasis", "setting": "[1]; biopsy", "result": "reduced metastasis"}, {"measurement": "regression and malignancy", "setting": "[1]; biopsy", "result": "signs of regression and reduced malignancy"}, {"measurement": "tumor size", "setting": "[1]; biopsy", "result": "smaller tumors"}, {"measurement": "PSA", "setting": "[1]; versus no intervention", "result": "significant reduction"}]}
{"compound": "O=c1c(O)c(-c2ccc(O)c(O)c2)oc2cc(O)cc(O)c12", "note": "[quercetin]", "values": [{"measurement": "prostate weight", "setting": "[2]", "result": "reduce prostate weight"}]}
{"compound": "[Se]", "note": "[selenium]", "values": [{"measurement": "fewer cases of advanced prostate cancer", "setting": "[3]", "result": 65, "unit": "%"}, {"measurement": "reduction of cancer mortality and morbidity", "setting": "[4]", "result": "approximately 50%"}, {"measurement": "risk of lung, prostate and colon cancer", "setting": "[4]", "result": "reduced significantly"}, {"measurement": "skin cancer", "setting": "[5]", "result": "no changes"}, {"measurement": "total, colorectal and lung cancer", "setting": "[5]", "result": "significant benefits"}, {"measurement": "reduction in the incidence of prostate cancer (secondary endpoint)", "setting": "[5]; 6.5 years follow-up, 974 men", "result": 63, "unit": "%"}, {"measurement": "number that developed prostate cancer", "setting": "[5]; placebo group 35", "result": 13}]}
